For experiment [1], the target named is T1, recombinant human soluble COMT (S-COMT) (Homo sapiens, UniProt P21964).
T1 sequence (P21964 1-221 isoform P21964-2): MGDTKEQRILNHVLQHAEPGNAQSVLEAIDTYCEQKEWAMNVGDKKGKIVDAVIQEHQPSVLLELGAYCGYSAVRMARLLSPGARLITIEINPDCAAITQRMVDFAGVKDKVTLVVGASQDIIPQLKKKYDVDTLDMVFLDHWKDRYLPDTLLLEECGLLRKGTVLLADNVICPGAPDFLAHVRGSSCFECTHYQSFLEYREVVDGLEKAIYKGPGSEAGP
As to the kind of experiment: COMT inhibiting activity in vitro, Assay 1 (fluorescence plate reader). It is filed as biochemical. The note with it: Assay 1: 12 nM S-COMT, 60 min preincubation at 37° C., substrate esculetin, Morrison equation. The method, then:
The inhibitory potency was determined by measuring recombinant human soluble COMT (S-COMT) activity at various compound concentrations. COMT activity measurements were performed according to the method published in Kurkela, M. et al. Analytical Biochemistry, 331 (2004) 198 with slight modifications according to Assay 1 or Assay 2 described below.
Recombinant human S-COMT (12 nM) was preincubated with the COMT inhibitor and 400 μM S-adenosyl-L-methionine in 100 mM Na2HPO4 buffer, pH 7.4, containing 5 mM MgCl2 for 60 min at 37° C. The reaction was started with the addition of the substrate esculetin for a final concentration of […] and the production of O-methylated esculetin was followed with the FlexStation fluorescence plate reader ([…], USA) using excitation at 355 nm and emission at 460 nm. The inhibitor dissociation constant, Ki, of the studied compounds was calculated using the Morrison equation, which takes the tight binding inhibition into account (Copeland, R. A. Evaluation of Enzyme Inhibitors in Drug Discovery. A Guide for Medicinal Chemists and Pharmacologists, John Wiley & Sons, Inc., Hoboken, N.J., 2005, pp. 185-187):
[formula] wherein v0 and vi are the reaction velocities in the absence and presence, respectively, of the inhibitor, E is the active enzyme concentration, and I is the inhibitor concentration. The data were analyzed with GraphPad Prism version 4.00 software (GraphPad Software, San Diego, Calif., USA). Assay 2

A short description of experiment [2]: Determination of levodopa concentration in rat plasma. The experiment is classed as in vivo. The note with it: entacapone = 1.00, adult male Wistar rats, COMT inhibitor dosed orally with levodopa+carbidopa. The method, then:
Levodopa concentration in rat plasma was determined substantially as described in e.g. Kim, T. K. et al. European Journal of Pharmaceutical Sciences, 38 (2009) 525. The studies were performed in adult male Wistar rats. The COMT inhibitor was dosed orally over a range of doses and several sampling time points were chosen between 0 min and 300 min after drug administration (levodopa+carbidopa and COMT inhibitor). Blood samples were collected by cardiac puncture under CO2 anaesthesia into pre-cooled K2EDTA tubes and kept on ice until the separation of plasma by centrifugation. For levodopa analysis, 75 μl of separated plasma was pipetted without delay into pre-cooled polypropylene tubes containing a conserving agent. All the samples were stored at −80° C. nominal until analyzed. Plasma levels of levodopa were determined by LC-MS/MS (or HPLC). Standard pharmacokinetic methods were used to evaluate the concentration—time data by non-compartmental analysis modeling. The analyses were performed using WinNonlin® Professional v. 5.0.1.

The record followed here is patent publication US9458128B2, “Catechol O-methyltransferase activity inhibiting compounds” (Orion Corporation, priority 2012, dated 2016).

One may read the Ki as the equilibrium dissociation constant of an inhibitor or competing ligand from its target. With `CC(C)S(=O)(=O)c1ccc(-c2c(C#N)cc(O)c(O)c2C#N)cc1` [Example 23, 3,4-Dihydroxy-4′-(isopropylsulfonyl)biphenyl-2,6-dicarbonitrile], in experiment [1], the Ki was 0.19 nM. In experiment [2], this molecule came in with a Relative levodopa concentration of 1.34.
In experiment [2], `N#Cc1cc(O)c(O)c(C#N)c1Cc1ccccc1F` [Example 60, 2-(2-Fluorobenzyl)-4,5-dihydroxyisophthalonitrile] yielded a Relative levodopa concentration of 1.13.
